Ends that are not written are not given here. Peptide text beside a SMILES is read from it.
Assays:
Antibodies to HIV-1 [1] = experiment: ELISA with peptide or peptide mixture as antigen, identifying HIV-1 positive sera; type: binding, human; conditions: single peptide, known HIV-1 positive sera, Table 3
Method: According to this test a peptide or a peptide mixture of the present invention is adsorbed onto the wells of a microtiter plate. The wells are then treated with sera to be tested. After washing, anti-human IgG labeled with peroxidase is added to the wells. The determination of the peroxidase is performed with a corresponding substrate, e.g. with o-phenylene diamine. Also in this procedure the peroxidase can be exchanged by another label, e.g. by a radioactive or fluorescence label.
(§1) Each well of the microtiter plate is saturated with 100 μl of a solution containing a peptide or mixture of peptides (5 μg/ml) and left overnight. The wells are emptied and washed twice with a washing buffer (Tris, 0.043M; NaCl, 0.5M; thimerosal, 0.01% w/v; Tween 20, 0.05% v/v; pH7.4). The wells are then saturated with 0.35 ml of washing buffer for 1 hr. at 37° C. and washed once with the same buffer. Serum samples to be analyzed are diluted with specimen buffer (washing buffer plus casein, 0.05% w/v). The wells are rinsed with washing buffer prior to the addition of the diluted serum sample (0.1 ml). These are left to incubate for 1 hr. at room temperature. The wells are then emptied, washed twice rapidly and then once for two minutes with washing buffer. […] The wells are then emptied and washed twice rapidly with washing buffer and then five times in which the buffer was in contact with the well 2 minutes per washing. The substrate solution (3,3', 5,5'-tetramethylbenzidine, 8 mg per ml of DMSO) is diluted with 100 volumes 0.1M citrate-acetate buffer, pH 5.6 containing 0.1% v/v of 30% H2 O2 and added to each well (0.1 ml per well). After 10 minutes the contents of each well is treated with 0.1 ml 2N H2 SO4 and the optical density read at 450 nm. All determinations are done in duplicate.

Antibodies to HIV-1 [2] = experiment: ELISA, relative performance of cyclic and non-cyclic HIV-1 peptides at serum dilutions (optical density); type: binding, human
Method: Table 4 is provided to illustrate the sensitivity of cyclic versus non cyclic peptides in the ELISA test by comparing the results of some sera at various dilutions.
as §1

[3] = serum specimen 87V103, dilution 1/50
[4] = serum specimen 1428, dilution 1/50
[5] = serum specimen M-5, dilution 1/50
[6] = serum specimen M-5, dilution 1/100
[7] = serum specimen M-5, dilution 1/200
[8] = serum specimen M-5, dilution 1/800
[9] = serum specimen M-7, dilution 1/50
[10] = serum specimen M-7, dilution 1/100
[11] = serum specimen M-7, dilution 1/200
[12] = serum specimen M-7, dilution 1/400
[13] = serum specimen M-7, dilution 1/800
[14] = serum specimen M-8, dilution 1/50
[15] = serum specimen M-8, dilution 1/100
[16] = serum specimen M-8, dilution 1/200
[17] = serum specimen M-8, dilution 1/400
[18] = serum specimen M-8, dilution 1/800
[19] = serum specimen M-16, dilution 1/50
[20] = serum specimen M-16, dilution 1/100
[21] = serum specimen M-16, dilution 1/200
[22] = serum specimen M-16, dilution 1/400
[23] = serum specimen M-16, dilution 1/800

Compound: NH2 -FAFAFGCSGKLICTTAVPWNASWSNKSLEQI-COOH [Peptide 91]
- % Positive Sera Correctly Identified (Antibodies to HIV-1 [1]): 94%

Compound: NH2 -IWGCSGKLICTTAVPWNAS-COOH (H-IWGCSGKLICTTAVPWNAS-OH; cysteine pairing not given here) [Peptide 78, gp 41 602-620]
- % Positive Sera Correctly Identified (Antibodies to HIV-1 [1]): 100%

Compound: CC[C@H](C)[C@@H]1NC(=O)[C@H](CC(C)C)NC(=O)[C@H](CCCCN)NC(=O)CNC(=O)[C@H](CO)NC(=O)[C@@H](NC(=O)CN)CSSC[C@@H](C(=O)N[C@H](C(=O)N[C@H](C(=O)N[C@@H](C)C(=O)N[C@H](C(=O)N2CCC[C@H]2C(=O)N[C@@H](Cc2c[nH]c3ccccc23)C(=O)N[C@@H](CC(N)=O)C(=O)N[C@@H](C)C(=O)N[C@@H](CO)C(=O)O)C(C)C)[C@@H](C)O)[C@@H](C)O)NC1=O [Peptide 80] (HELM PEPTIDE1{G.C.S.G.K.L.I.C.T.T.A.V.P.W.N.A.S}$PEPTIDE1,PEPTIDE1,2:R3-8:R3$$$V2.0)
- % Positive Sera Correctly Identified (Antibodies to HIV-1 [1]): 100%
- ELISA optical density (Antibodies to HIV-1 [2]; [3]): 0.003 OPTICAL DENSITY UNITS
- ELISA optical density (Antibodies to HIV-1 [2]; [4]): 1.047 OPTICAL DENSITY UNITS
- ELISA optical density (Antibodies to HIV-1 [2]; [5]): 2.104 OPTICAL DENSITY UNITS
- ELISA optical density (Antibodies to HIV-1 [2]; [6]): 1.881 OPTICAL DENSITY UNITS
- ELISA optical density (Antibodies to HIV-1 [2]; [7]): 1.599 OPTICAL DENSITY UNITS
- ELISA optical density (Antibodies to HIV-1 [2]; [8]): 0.767 OPTICAL DENSITY UNITS
- ELISA optical density (Antibodies to HIV-1 [2]; [9]): 0.191 OPTICAL DENSITY UNITS
- ELISA optical density (Antibodies to HIV-1 [2]; [10]): 0.067 OPTICAL DENSITY UNITS
- ELISA optical density (Antibodies to HIV-1 [2]; [11]): 0.019 OPTICAL DENSITY UNITS
- ELISA optical density (Antibodies to HIV-1 [2]; [12]): 0.010 OPTICAL DENSITY UNITS
- ELISA optical density (Antibodies to HIV-1 [2]; [13]): 0.005 OPTICAL DENSITY UNITS
- ELISA optical density (Antibodies to HIV-1 [2]; [14]): 1.026 OPTICAL DENSITY UNITS
- ELISA optical density (Antibodies to HIV-1 [2]; [15]): 0.737 OPTICAL DENSITY UNITS
- ELISA optical density (Antibodies to HIV-1 [2]; [16]): 0.520 OPTICAL DENSITY UNITS
- ELISA optical density (Antibodies to HIV-1 [2]; [17]): 0.340 OPTICAL DENSITY UNITS
- ELISA optical density (Antibodies to HIV-1 [2]; [18]): 0.159 OPTICAL DENSITY UNITS
- ELISA optical density (Antibodies to HIV-1 [2]; [19]): 1.601 OPTICAL DENSITY UNITS
- ELISA optical density (Antibodies to HIV-1 [2]; [20]): 1.300 OPTICAL DENSITY UNITS
- ELISA optical density (Antibodies to HIV-1 [2]; [21]): 0.903 OPTICAL DENSITY UNITS
- ELISA optical density (Antibodies to HIV-1 [2]; [22]): 0.583 OPTICAL DENSITY UNITS
- ELISA optical density (Antibodies to HIV-1 [2]; [23]): 0.329 OPTICAL DENSITY UNITS

Compound: NH2 -CGVERYLKQQLLGIWGCSGKLICTTAVPWNASWSNKSLEQI-COOH [Peptide 99]
- % Positive Sera Correctly Identified (Antibodies to HIV-1 [1]): 100%

Compound: TKAKRRVVQREKRGAVGIGALFLGFLGAAGSG [Peptide 93]
- % Positive Sera Correctly Identified (Antibodies to HIV-1 [1]): 37%

Compound: NH2 -RILAVERYLKDQQLLGIWGCSGKLICTTAVPWNAS-COOH [Peptide 87]
- % Positive Sera Correctly Identified (Antibodies to HIV-1 [1]): 99%
- ELISA optical density (Antibodies to HIV-1 [2]; [3]): 0.005 OPTICAL DENSITY UNITS
- ELISA optical density (Antibodies to HIV-1 [2]; [4]): 1.463 OPTICAL DENSITY UNITS
- ELISA optical density (Antibodies to HIV-1 [2]; [5]): 1.809 OPTICAL DENSITY UNITS
- ELISA optical density (Antibodies to HIV-1 [2]; [6]): 1.219 OPTICAL DENSITY UNITS
- ELISA optical density (Antibodies to HIV-1 [2]; [7]): 1.513 OPTICAL DENSITY UNITS
- ELISA optical density (Antibodies to HIV-1 [2]; serum specimen M-5, dilution 1/400): 1.418 OPTICAL DENSITY UNITS
- ELISA optical density (Antibodies to HIV-1 [2]; [8]): 1.012 OPTICAL DENSITY UNITS
- ELISA optical density (Antibodies to HIV-1 [2]; [9]): 1.504 OPTICAL DENSITY UNITS
- ELISA optical density (Antibodies to HIV-1 [2]; [10]): 1.329 OPTICAL DENSITY UNITS
- ELISA optical density (Antibodies to HIV-1 [2]; [11]): 1.184 OPTICAL DENSITY UNITS
- ELISA optical density (Antibodies to HIV-1 [2]; [12]): 0.923 OPTICAL DENSITY UNITS
- ELISA optical density (Antibodies to HIV-1 [2]; [13]): 0.571 OPTICAL DENSITY UNITS
- ELISA optical density (Antibodies to HIV-1 [2]; [14]): 1.390 OPTICAL DENSITY UNITS
- ELISA optical density (Antibodies to HIV-1 [2]; [15]): 1.087 OPTICAL DENSITY UNITS
- ELISA optical density (Antibodies to HIV-1 [2]; [16]): 0.883 OPTICAL DENSITY UNITS
- ELISA optical density (Antibodies to HIV-1 [2]; [17]): 0.593 OPTICAL DENSITY UNITS
- ELISA optical density (Antibodies to HIV-1 [2]; [18]): 0.240 OPTICAL DENSITY UNITS
- ELISA optical density (Antibodies to HIV-1 [2]; [19]): 1.846 OPTICAL DENSITY UNITS
- ELISA optical density (Antibodies to HIV-1 [2]; [20]): 1.784 OPTICAL DENSITY UNITS
- ELISA optical density (Antibodies to HIV-1 [2]; [21]): 1.740 OPTICAL DENSITY UNITS
- ELISA optical density (Antibodies to HIV-1 [2]; [22]): 1.634 OPTICAL DENSITY UNITS
- ELISA optical density (Antibodies to HIV-1 [2]; [23]): 1.537 OPTICAL DENSITY UNITS

Compound: GHACVPTDPNPQEVVL [Peptide 14]
- % Positive Sera Correctly Identified (Antibodies to HIV-1 [1]): 50%

Compound: TTAVPWNASWSNKSLEQGC [Peptide 42]
- % Positive Sera Correctly Identified (Antibodies to HIV-1 [1]): 5%

Compound: CC[C@H](C)[C@H](NC(=O)[C@H](CCC(N)=O)NC(=O)[C@H](CCC(=O)O)NC(=O)[C@H](CC(C)C)NC(=O)[C@H](CO)NC(=O)[C@H](CCCCN)NC(=O)[C@H](CC(N)=O)NC(=O)[C@H](CO)NC(=O)[C@H](Cc1c[nH]c2ccccc12)NC(=O)[C@H](CO)NC(=O)[C@H](C)NC(=O)[C@H](CC(N)=O)NC(=O)[C@H](Cc1c[nH]c2ccccc12)NC(=O)[C@@H]1CCCN1C(=O)[C@@H](NC(=O)[C@H](C)NC(=O)[C@@H](NC(=O)[C@@H](NC(=O)[C@@H]1CSSC[C@H](NC(=O)CN)C(=O)N[C@@H](CO)C(=O)NCC(=O)N[C@@H](CCCCN)C(=O)N[C@@H](CC(C)C)C(=O)N[C@@H]([C@@H](C)CC)C(=O)N1)[C@@H](C)O)[C@@H](C)O)C(C)C)C(=O)O [Peptide 96] (HELM PEPTIDE1{G.C.S.G.K.L.I.C.T.T.A.V.P.W.N.A.S.W.S.N.K.S.L.E.Q.I}$PEPTIDE1,PEPTIDE1,2:R3-8:R3$$$V2.0)
- % Positive Sera Correctly Identified (Antibodies to HIV-1 [1]): 100%
